Experimental data from US6043217A, “Amide derivative of amythiamicin” (Zaidan Hojin Biseibutsu Kagaku Kenyu Kai, priority 1996, dated 2000).

Tests used:
[1] = background statement on known amythiamicins; cited from earlier work
[2] = system: Streptococcus pneumoniae Type 1; assay: MIC, standard serial dilution method; type: cell-based; conditions: Muller-Hinton agar medium, 37° C.
[3] = system: Staphylococcus aureus MS 15027; assay: MIC, standard serial dilution method; type: cell-based; conditions: Muller-Hinton agar medium, 37° C.
[4] = system: Staphylococcus epidermidis ATCC 14990; assay: MIC, standard serial dilution method; type: cell-based; conditions: Muller-Hinton agar medium, 37° C.
[5] = system: Staphylococcus aureus 209P JC-1; assay: MIC, standard serial dilution method; type: cell-based; conditions: Muller-Hinton agar medium, 37° C.
[6] = system: Klebsiella pneumonia PCI 602; assay: MIC, standard serial dilution method; type: cell-based; conditions: Klebsiella pneumonia PCI 602 (Table 3); Muller-Hinton agar medium, 37° C.
[7] = system: Enterobacterium faecalis W-73; assay: MIC, standard serial dilution method; type: cell-based; conditions: Muller-Hinton agar medium, 37° C.
[8] = system: Staphylococcus aureus M 126; assay: MIC, standard serial dilution method; type: cell-based; conditions: Muller-Hinton agar medium, 37° C.
[9] = system: Haemophilus influenzae Type b; assay: MIC, standard serial dilution method; type: cell-based; conditions: Muller-Hinton agar medium, 37° C.
[10] = system: Staphylococcus aureus M 133; assay: MIC, standard serial dilution method; type: cell-based; conditions: Muller-Hinton agar medium, 37° C.
[11] = system: Staphylococcus aureus MS 15026; assay: MIC, standard serial dilution method; type: cell-based; conditions: Muller-Hinton agar medium, 37° C.
[12] = system: Haemophilus influenzae 9334; assay: MIC, standard serial dilution method; type: cell-based; conditions: Muller-Hinton agar medium, 37° C.
[13] = system: Staphylococcus aureus MS 15009/pMS 98; assay: MIC, standard serial dilution method; type: cell-based; conditions: Muller-Hinton agar medium, 37° C.
Experimental: (§1) The antibacterial activities of the amythiamicin amide derivative of the general formula (I) according to this invention are now concretely described. Compounds No. 1 to No. 11 according to this invention, which were respectively prepared in Examples 1 to 11 hereinafter given, were tested as the test compounds for their minimum inhibitory concentrations (MIC.) (μg/ml) against growth of a variety of test microorganisms by a standard serial dilution method. In the tests, the incubation medium used was Muller-Hinton agar medium and the incubation temperature was 37° C. The test results are shown as antibacterial spectra in the following Tables 2 and 3.

[14] = system: Staphylococcus aureus MS 15009/pMS 99; assay: MIC, standard serial dilution method; type: cell-based; conditions: Muller-Hinton agar medium, 37° C.
Experimental: as §1

[15] = system: Streptococcus pneumoniae IP 692; assay: MIC, standard serial dilution method; type: cell-based; conditions: Muller-Hinton agar medium, 37° C.
[16] = system: Branhamella catarrhalis W-0506; assay: MIC, standard serial dilution method; type: cell-based; conditions: Muller-Hinton agar medium, 37° C.
[17] = system: Micrococcus luteus ATCC 9341; assay: MIC, standard serial dilution method; type: cell-based; conditions: Muller-Hinton agar medium, 37° C.
[18] = system: Branhamella catarrhalis W-0500; assay: MIC, standard serial dilution method; type: cell-based; conditions: Muller-Hinton agar medium, 37° C.
[19] = system: Escherichia coli NIHJ JC-2; assay: MIC, standard serial dilution method; type: cell-based; conditions: Muller-Hinton agar medium, 37° C.
[20] = system: Streptococcus pyogenes Cook; assay: MIC, standard serial dilution method; type: cell-based; conditions: Muller-Hinton agar medium, 37° C.

Row | Structure (SMILES) | solubility in water [1] | Minimum growth inhibitory concentrations (MIC.) [2] [µg/mL] | Minimum growth inhibitory concentrations (MIC.) [3] [µg/mL] | Minimum growth inhibitory concentrations (MIC.) [4] [µg/mL] | Minimum growth inhibitory concentrations (MIC.) [5] [µg/mL] | Minimum growth inhibitory concentrations (MIC.) [6] [µg/mL] | Minimum growth inhibitory concentrations (MIC.) [7] [µg/mL] | Minimum growth inhibitory concentrations (MIC.) [8] [µg/mL] | Minimum growth inhibitory concentrations (MIC.) [9] [µg/mL] | Minimum growth inhibitory concentrations (MIC.) [10] [µg/mL] | Minimum growth inhibitory concentrations (MIC.) [11] [µg/mL] | Minimum growth inhibitory concentrations (MIC.) [12] [µg/mL] | Minimum growth inhibitory concentrations (MIC.) [13] [µg/mL] | Minimum growth inhibitory concentrations (MIC.) [14] [µg/mL] | Minimum growth inhibitory concentrations (MIC.) [15] [µg/mL] | Minimum growth inhibitory concentrations (MIC.) [16] [µg/mL] | Minimum growth inhibitory concentrations (MIC.) [17] [µg/mL] | Minimum growth inhibitory concentrations (MIC.) [18] [µg/mL] | Minimum growth inhibitory concentrations (MIC.) [19] [µg/mL] | Minimum growth inhibitory concentrations (MIC.) [20] [µg/mL]
1 | CNC(=O)CC1NC(=O)c2csc(n2)-c2ccc(-c3nc(C(=O)OC)cs3)nc2-c2csc(n2)-c2csc(n2)C(C(C)C)NC(=O)CNC(=O)c2csc(n2)C(C(C)C)NC(=O)c2nc1sc2C (centres unmarked) [Amythiamicin D] | hardly soluble in water | – | – | – | – | – | – | – | – | – | – | – | – | – | – | – | – | – | – | –
2 | CCCCNC(=O)c1csc(-c2ccc3c(n2)-c2csc(n2)-c2csc(n2)C(C(C)C)NC(=O)CNC(=O)c2csc(n2)C(C(C)C)NC(=O)c2nc(sc2C)C(CC(=O)NC)NC(=O)c2csc-3n2)n1 (centres unmarked) [Compound No. 8] | – | > 100 | > 100 | > 100 | > 100 | > 100 | > 100 | > 100 | > 100 | > 100 | > 100 | > 100 | > 100 | > 100 | > 100 | > 100 | 1.56 | > 100 | > 100 | > 100
3 | CNC(=O)CC1NC(=O)c2csc(n2)-c2ccc(-c3nc(C(=O)NCCCO)cs3)nc2-c2csc(n2)-c2csc(n2)C(C(C)C)NC(=O)CNC(=O)c2csc(n2)C(C(C)C)NC(=O)c2nc1sc2C (centres unmarked) [Compound No. 9] | – | > 100 | 0.39 | 0.78 | 0.39 | > 100 | 0.39 | 0.39 | > 100 | 0.39 | 0.39 | > 100 | 0.39 | 0.39 | > 100 | > 100 | 0.20 | > 100 | > 100 | > 100
4 | CNC(=O)CC1NC(=O)c2csc(n2)-c2ccc(-c3nc(C(=O)N[C@@H](CCCNC(=N)N)C(=O)O)cs3)nc2-c2csc(n2)-c2csc(n2)C(C(C)C)NC(=O)CNC(=O)c2csc(n2)C(C(C)C)NC(=O)c2nc1sc2C (some centres unmarked) [Compound No. 10] | – | > 100 | > 100 | > 100 | > 100 | > 100 | > 100 | > 100 | > 100 | > 100 | > 100 | > 100 | > 100 | > 100 | > 100 | > 100 | > 100 | > 100 | > 100 | > 100
5 | CNC(=O)CC1NC(=O)c2csc(n2)-c2ccc(-c3nc(C(=O)N[C@H](CO)CCCNC(=N)N)cs3)nc2-c2csc(n2)-c2csc(n2)C(C(C)C)NC(=O)CNC(=O)c2csc(n2)C(C(C)C)NC(=O)c2nc1sc2C (some centres unmarked) [Compound No. 11] | – | > 100 | > 100 | > 100 | 6.25 | > 100 | > 100 | > 100 | > 100 | > 100 | > 100 | > 100 | > 100 | > 100 | > 100 | > 100 | 100 | > 100 | > 100 | > 100
